Data on five molecules can be found in the NIST ThermoML archive (doi:10.1016/j.fluid.2017.03.012).

SMILES strings stand for the structures. ± gives the expanded uncertainty stated by the source.

For series [1] the following is noted: for Normal melting temperature: DTA; for Triple point temperature: Crystal 2, DSC.
Series [2] can be described thus: Molar enthalpy of transition or fusion. The following applies: DSC.

For the molecule `CCCCCCCCCCCCCCCCCCCCCCCC` [tetracosane], in series [1] (Crystal 1), the Normal melting temperature was 48.06 ± 0.53 °C. Further, the Triple point temperature in series [1] came out at 319.35 ± 0.81 K. Moreover, the “Molar enthalpy of transition or fusion” value in series [2] (Crystal 1) was determined as 14.6 ± 1.77 kcal/mol; in series [2] (Crystal 2), 8.08 ± 0.98 kcal/mol.
With `c1ccc(-c2ccccc2)cc1` [biphenyl], the Normal melting temperature in series [1] (Crystal) is 68.0 ± 0.53 °C. Also, the “Molar enthalpy of transition or fusion” value in series [2] (Crystal) was 4.66 ± 0.574 kcal/mol.
Consider `CCCCCCCCCCCCCCCCCCO` [1-octadecanol], for which, in series [1] (Crystal 1), the Normal melting temperature was found to be 56.2 ± 0.53 °C. Also, the Triple point temperature in series [1] was found to be 319.35 ± 0.81 K. The “Molar enthalpy of transition or fusion” value in series [2] (Crystal 1) is 12.4 ± 1.51 kcal/mol; in series [2] (Crystal 2), 6.54 ± 0.789 kcal/mol.
Turning to `CCCCCCCCCCCCCCCCCCCC` [eicosane], in series [1] (Crystal), the Normal melting temperature amounted to 35.03 ± 0.53 °C. For the same molecule, in series [2] (Crystal), the “Molar enthalpy of transition or fusion” value stood at 17.3 ± 2.1 kcal/mol.
With `CCCCCCCCCCCCCCCCCCCCO` [1-eicosanol], the Normal melting temperature in series [1] (Crystal) worked out at 63.8 ± 0.53 °C. In addition, the “Molar enthalpy of transition or fusion” value in series [2] (Crystal) came to 17 ± 2.08 kcal/mol.
